# Marks after values point to notes of the source that are not given here.
# Columns and labels:
# Assay in all cases: Peptide mismatched library: peptide-loaded T2 cells co-cultured with TCR-transduced CD8+ T cells, IFN-γ-ELISA
# Format in all cases: cell-based
# [1] = test system: WT NY-ESO_PD1-41 BB TCR ("SWAT"); details: for IFN-γ [pg/ml production] MIT 045 SWAT: donor MIT045; for IFN-γ [pg/ml production] MIT 045 SWAT / IFN-γ [pg/ml production] MIT038 SWAT: CD8^+ T cells transduced with WT NY-ESO_PD1-41 BB TCR (SWAT), mismatch peptide loaded on T2 cells, IFNg-ELISA; for IFN-γ [pg/ml production] MIT038 SWAT: donor MIT038
# Excerpt: (§1) The aim was to further compare the WT NY-ESO-1 with two UNI-TABS NY-ESO-TCRs (Position A199 in loop 1 and A245 in loop 2) in combination with PD1_41 BB regarding allogeneic HLA cross-recognition and HLA fine typing.
# (§2) To test a peptide mismatched library, 336 different mismatched peptides, differing from 1-4 amino acids from the wild-type peptide recognized by the WT TCR were loaded on T2 cells and co-cultured with CD8^+ T cell transduced with either wt NY-ESO_PD1-41 BB TCR, NY-ESO-UniTABS-A199_PD1-41 BB TCR or NY-ESO-UniTABS-A245_PD1-41 BB TCR. The culture supernatant was collected, and an IFN-γ-ELISA performed.
# (§3) The sequences and the numbers of the respective mismatch peptides are listed. The cells contain the values of IFN-γ [pg/ml production]. BetaA199: UniTAB epitope set forth in SEQ ID NO: 47 inserted in loop1 at position A199 flanked by GSG linker sequences, BetaA245: UniTAB epitope set forth in SEQ ID NO: 47 inserted in loop 2 at position A245 flanked by GSG linker sequences. Table 2: Mismatched peptides recognized by NY-ESO WT and NY-ESO variants
# [2] = test system: NY-ESO-A245_PD1-41 BB TCR (UniTAB2); details: donor MIT045; CD8^+ T cells transduced with NY-ESO-A245_PD1-41 BB TCR (UniTAB2); mismatch peptide loaded on T2 cells; IFNg-ELISA
# Excerpt: as §1, §2, §3
# [3] = test system: NY-ESO-A199_PD1-41 BB TCR (UniTAB1); details: CD8^+ T cells transduced with NY-ESO-A199_PD1-41 BB TCR (UniTAB1), mismatch peptide loaded on T2 cells, IFNg-ELISA; for IFN-γ [pg/ml production] MIT038 UniTABs-A199: donor MIT038
# Excerpt: as §1, §2, §3
Sequence,"recognition of mismatched peptide (IFN-γ response) ([1]; WT TCR-PD1-41BB transduced T cells, two donors)",IFN-γ [pg/ml production] MIT 045 SWAT [1],IFN-γ [pg/ml production] MIT038 SWAT [1],IFN-γ [pg/ml production] MIT 045 UniTABs-A245 [2],IFN-γ [pg/ml production] MIT038 UniTABs-A199 [3],IFN-γ [pg/ml production] MIT 045 UniTABs-A199 ([3]; donor MIT045)
ICLQWITQC [compound 8],only recognized by WT TCR transduced T cells of one donor,24.7**** pg/ml,–,–,–,–
NLLFWICGC [compound 221],–,100.6* pg/ml,788.9* pg/ml,0.0* pg/ml,900.2* pg/ml,889.3* pg/ml
SLLCYIKHC [compound 239],–,32.1** pg/ml,228.6** pg/ml,–,312.2** pg/ml,–
